In general, residual activity refers to the signal under treatment as a percentage of the control signal.

AKT2 (human), sequence (P31751 whole entry, looked up): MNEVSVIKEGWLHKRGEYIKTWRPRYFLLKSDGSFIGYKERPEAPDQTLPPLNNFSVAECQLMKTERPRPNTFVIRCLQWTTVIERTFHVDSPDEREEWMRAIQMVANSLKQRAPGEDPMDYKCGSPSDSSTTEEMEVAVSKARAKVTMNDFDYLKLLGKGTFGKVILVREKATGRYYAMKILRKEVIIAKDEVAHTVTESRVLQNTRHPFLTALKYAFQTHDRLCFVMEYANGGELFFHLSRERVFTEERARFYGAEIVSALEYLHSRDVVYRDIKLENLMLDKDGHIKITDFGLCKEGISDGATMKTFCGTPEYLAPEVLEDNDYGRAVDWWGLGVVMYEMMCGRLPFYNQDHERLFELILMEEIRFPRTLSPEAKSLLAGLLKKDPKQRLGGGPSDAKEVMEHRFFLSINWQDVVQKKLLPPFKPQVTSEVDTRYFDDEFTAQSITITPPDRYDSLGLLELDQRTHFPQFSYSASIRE
MUSK (human), sequence (O15146 whole entry, looked up): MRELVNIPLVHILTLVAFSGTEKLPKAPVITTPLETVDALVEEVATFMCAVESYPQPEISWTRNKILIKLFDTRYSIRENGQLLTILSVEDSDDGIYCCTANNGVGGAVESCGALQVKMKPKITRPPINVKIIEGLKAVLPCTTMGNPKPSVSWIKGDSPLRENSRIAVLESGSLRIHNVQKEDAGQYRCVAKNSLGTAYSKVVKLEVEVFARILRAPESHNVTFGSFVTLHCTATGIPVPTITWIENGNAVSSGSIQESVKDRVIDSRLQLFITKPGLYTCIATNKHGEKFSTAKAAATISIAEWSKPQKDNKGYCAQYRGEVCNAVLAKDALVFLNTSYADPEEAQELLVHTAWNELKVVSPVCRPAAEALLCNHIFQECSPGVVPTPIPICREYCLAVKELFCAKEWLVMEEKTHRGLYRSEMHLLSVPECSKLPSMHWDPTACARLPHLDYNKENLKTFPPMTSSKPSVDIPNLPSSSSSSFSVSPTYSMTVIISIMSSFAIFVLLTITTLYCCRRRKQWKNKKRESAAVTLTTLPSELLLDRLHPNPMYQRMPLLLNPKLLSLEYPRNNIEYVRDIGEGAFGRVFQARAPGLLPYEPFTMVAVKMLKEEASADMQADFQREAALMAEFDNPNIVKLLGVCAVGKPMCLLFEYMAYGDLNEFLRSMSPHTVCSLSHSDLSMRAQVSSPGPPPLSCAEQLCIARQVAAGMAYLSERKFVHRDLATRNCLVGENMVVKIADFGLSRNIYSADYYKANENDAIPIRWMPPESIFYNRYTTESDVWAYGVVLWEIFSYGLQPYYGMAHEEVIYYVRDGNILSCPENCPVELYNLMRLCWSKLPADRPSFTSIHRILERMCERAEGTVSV
CAMKK1 (human), sequence (Q8N5S9 whole entry, looked up): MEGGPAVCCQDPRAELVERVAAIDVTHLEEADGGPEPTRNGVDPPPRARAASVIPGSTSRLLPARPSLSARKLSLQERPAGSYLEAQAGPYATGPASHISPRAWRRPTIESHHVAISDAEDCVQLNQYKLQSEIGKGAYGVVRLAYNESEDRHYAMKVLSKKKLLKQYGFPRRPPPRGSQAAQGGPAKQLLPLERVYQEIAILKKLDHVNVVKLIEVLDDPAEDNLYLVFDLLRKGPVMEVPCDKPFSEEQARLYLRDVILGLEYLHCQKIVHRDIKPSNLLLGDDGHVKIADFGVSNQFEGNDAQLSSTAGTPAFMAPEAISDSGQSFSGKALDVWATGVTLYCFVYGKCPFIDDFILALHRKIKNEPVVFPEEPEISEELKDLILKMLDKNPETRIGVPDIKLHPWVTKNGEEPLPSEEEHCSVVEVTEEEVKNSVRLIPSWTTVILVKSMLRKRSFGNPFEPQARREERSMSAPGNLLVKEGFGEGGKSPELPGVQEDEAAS
MAPK1 (human), sequence (P28482 whole entry, looked up): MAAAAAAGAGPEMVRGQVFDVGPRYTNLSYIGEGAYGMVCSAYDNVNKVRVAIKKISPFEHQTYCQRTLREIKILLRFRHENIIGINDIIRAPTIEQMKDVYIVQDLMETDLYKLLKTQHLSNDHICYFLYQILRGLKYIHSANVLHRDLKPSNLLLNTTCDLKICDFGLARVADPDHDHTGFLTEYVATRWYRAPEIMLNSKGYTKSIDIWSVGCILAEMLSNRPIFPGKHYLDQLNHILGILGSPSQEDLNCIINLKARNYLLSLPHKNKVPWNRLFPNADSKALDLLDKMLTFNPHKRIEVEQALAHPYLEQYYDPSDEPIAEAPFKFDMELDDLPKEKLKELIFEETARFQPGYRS

The first assay has as its target EGFR (human) (UniProt P00533). The assay can be described thus: radiometric filter-binding kinase assay, Kinase HotSpot. Conditions: compound 0.5 µM; ATP 10 µM.
As for `CC(=O)c1ccc(N2CCOCC2)cc1O`, the residual activity was 97.4%.

On to `Cc1ccc(S(=O)(=O)/C=C/C#N)cc1`, for which the residual activity worked out at 97.5%.

For `Cc1ccc(NC2=CC(=O)c3sc(C)nc3C2=O)cc1`, the residual activity stood at 97.9%.

Another assay deals with MAP3K2 (human) (UniProt Q9Y2U5). The description is as above. Conditions: compound 0.5 µM; ATP 10 µM.
Take `CC(=O)c1ccc(N2CCOCC2)cc1O`: the residual activity was determined as 109%.

For the molecule `Cc1ccc(S(=O)(=O)/C=C/C#N)cc1`, the residual activity worked out at 91.8%.

Consider `Cc1ccc(NC2=CC(=O)c3sc(C)nc3C2=O)cc1`, for which the residual activity was determined as 93.3%.

A further assay deals with MAPKAPK3 (human) (UniProt Q16644). The assay is described as above. Conditions: compound 0.5 µM; ATP 10 µM.
Turning to `CC(=O)c1ccc(N2CCOCC2)cc1O`, the residual activity was 105%.

As for `Cc1ccc(S(=O)(=O)/C=C/C#N)cc1`, the residual activity was determined as 97.8%.

`Cc1ccc(NC2=CC(=O)c3sc(C)nc3C2=O)cc1`: the residual activity came to 76.5%.

The target of a further assay is MAPKAPK5 (human) (UniProt Q8IW41). The description is as above. Conditions: compound 0.5 µM; ATP 10 µM.
In the case of `CC(=O)c1ccc(N2CCOCC2)cc1O`, the residual activity amounted to 96.9%.

`Cc1ccc(S(=O)(=O)/C=C/C#N)cc1`: the residual activity worked out at 88.9%.

As to `Cc1ccc(NC2=CC(=O)c3sc(C)nc3C2=O)cc1`, the residual activity was found to be 108%.

The target in a further assay is ADRBK1 (human) (UniProt P25098). The assay is described as above. Conditions: compound 0.5 µM; ATP 10 µM.
ADRBK1 (human), sequence (P25098 whole entry, looked up): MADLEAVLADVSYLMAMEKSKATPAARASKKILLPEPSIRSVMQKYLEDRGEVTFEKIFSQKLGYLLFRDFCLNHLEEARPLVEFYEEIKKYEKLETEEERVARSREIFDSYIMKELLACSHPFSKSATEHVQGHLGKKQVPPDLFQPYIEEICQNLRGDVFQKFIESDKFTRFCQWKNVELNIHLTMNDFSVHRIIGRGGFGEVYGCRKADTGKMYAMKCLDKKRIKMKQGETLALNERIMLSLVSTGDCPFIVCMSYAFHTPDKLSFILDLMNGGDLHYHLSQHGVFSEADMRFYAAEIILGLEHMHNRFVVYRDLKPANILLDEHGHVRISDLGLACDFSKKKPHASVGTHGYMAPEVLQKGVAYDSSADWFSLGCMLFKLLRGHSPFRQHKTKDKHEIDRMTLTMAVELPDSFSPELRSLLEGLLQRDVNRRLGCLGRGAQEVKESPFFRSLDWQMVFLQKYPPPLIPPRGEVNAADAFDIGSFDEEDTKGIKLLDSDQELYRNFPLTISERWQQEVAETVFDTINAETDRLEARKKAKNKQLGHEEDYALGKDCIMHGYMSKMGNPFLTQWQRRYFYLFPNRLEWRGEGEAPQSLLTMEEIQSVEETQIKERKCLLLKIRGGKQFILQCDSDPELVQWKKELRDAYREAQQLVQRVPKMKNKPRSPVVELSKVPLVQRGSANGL
Regarding `CC(=O)c1ccc(N2CCOCC2)cc1O`, the residual activity came out at 99%.

In the case of `Cc1ccc(S(=O)(=O)/C=C/C#N)cc1`, the residual activity was determined as 102%.

`Cc1ccc(NC2=CC(=O)c3sc(C)nc3C2=O)cc1`: the residual activity was 96.6%.

In a further assay the target is MARK1 (human) (UniProt Q9P0L2). Described as above. To be noted: compound 0.5 µM; ATP 10 µM.
Consider `CC(=O)c1ccc(N2CCOCC2)cc1O`, for which the residual activity is 96.7%.

As to `Cc1ccc(S(=O)(=O)/C=C/C#N)cc1`, the residual activity was determined as 102%.

With `Cc1ccc(NC2=CC(=O)c3sc(C)nc3C2=O)cc1`, the residual activity was determined as 89.6%.

For another assay, the target named is CSF1R (human) (UniProt P07333). The description is as above. Conditions: compound 0.5 µM; ATP 10 µM.
On to `CC(=O)c1ccc(N2CCOCC2)cc1O`, for which the residual activity was 100%.

Consider `Cc1ccc(S(=O)(=O)/C=C/C#N)cc1`, for which the residual activity was determined as 93.6%.

For `Cc1ccc(NC2=CC(=O)c3sc(C)nc3C2=O)cc1`, the residual activity amounted to 89.9%.

A further assay concerns the target AKT2 (human) (UniProt P31751). Described as above. To be noted: compound 0.5 µM; ATP 10 µM.
Consider `CC(=O)c1ccc(N2CCOCC2)cc1O`, for which the residual activity came to 96.2%.

In the case of `Cc1ccc(S(=O)(=O)/C=C/C#N)cc1`, the residual activity stood at 94.9%.

For `Cc1ccc(NC2=CC(=O)c3sc(C)nc3C2=O)cc1`, the residual activity was determined as 91.3%.

The target in another assay is GSK3B (human) (UniProt P49841). The description is as above. Conditions: compound 0.5 µM; ATP 10 µM.
Turning to `CC(=O)c1ccc(N2CCOCC2)cc1O`, the residual activity amounted to 122%.

With `Cc1ccc(S(=O)(=O)/C=C/C#N)cc1`, the residual activity came out at 109%.

As for `Cc1ccc(NC2=CC(=O)c3sc(C)nc3C2=O)cc1`, the residual activity was determined as 82%.

Another assay addresses MAPK1 (human) (UniProt P28482). The description is as above. Conditions: compound 0.5 µM; ATP 10 µM.
Take `CC(=O)c1ccc(N2CCOCC2)cc1O`: the residual activity was determined as 97.6%.

`Cc1ccc(S(=O)(=O)/C=C/C#N)cc1`: the residual activity amounted to 100%.

Turning to `Cc1ccc(NC2=CC(=O)c3sc(C)nc3C2=O)cc1`, the residual activity was found to be 91.4%.

For a further assay, the target named is PAK3 (human) (UniProt O75914). The assay is described as above. Conditions: compound 0.5 µM; ATP 10 µM.
PAK3 (human), sequence (O75914 whole entry, looked up): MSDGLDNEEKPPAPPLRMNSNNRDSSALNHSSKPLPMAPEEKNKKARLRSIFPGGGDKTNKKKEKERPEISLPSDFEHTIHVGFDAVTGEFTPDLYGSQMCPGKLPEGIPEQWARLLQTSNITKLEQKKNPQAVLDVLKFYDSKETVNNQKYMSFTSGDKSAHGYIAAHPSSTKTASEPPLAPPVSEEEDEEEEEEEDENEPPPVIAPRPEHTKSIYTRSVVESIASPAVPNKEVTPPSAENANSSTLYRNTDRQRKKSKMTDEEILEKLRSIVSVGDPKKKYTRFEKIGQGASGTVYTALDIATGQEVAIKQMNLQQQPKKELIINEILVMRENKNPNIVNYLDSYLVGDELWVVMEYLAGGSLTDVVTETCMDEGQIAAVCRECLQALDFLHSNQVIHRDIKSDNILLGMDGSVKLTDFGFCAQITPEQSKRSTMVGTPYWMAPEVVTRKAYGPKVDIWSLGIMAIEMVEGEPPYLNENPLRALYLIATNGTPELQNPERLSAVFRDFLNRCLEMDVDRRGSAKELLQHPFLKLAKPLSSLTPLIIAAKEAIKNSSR
On to `CC(=O)c1ccc(N2CCOCC2)cc1O`, for which the residual activity was 93.9%.

Turning to `Cc1ccc(S(=O)(=O)/C=C/C#N)cc1`, the residual activity amounted to 105%.

For `Cc1ccc(NC2=CC(=O)c3sc(C)nc3C2=O)cc1`, the residual activity turned out to be 97.5%.

In another assay the target is MAP3K7 TAB1 (human) (UniProt O43318+Q15750). The assay is described as above. To be noted: compound 0.5 µM; ATP 10 µM.
As for `CC(=O)c1ccc(N2CCOCC2)cc1O`, the residual activity stood at 98.6%.

For `Cc1ccc(S(=O)(=O)/C=C/C#N)cc1`, the residual activity is 99.9%.

Take `Cc1ccc(NC2=CC(=O)c3sc(C)nc3C2=O)cc1`: the residual activity is 99.1%.

Another assay addresses GSG2 (human) (UniProt Q8TF76). The assay is described as above. To be noted: compound 0.5 µM; ATP 10 µM.
For `CC(=O)c1ccc(N2CCOCC2)cc1O`, the residual activity is 79.6%.

As for `Cc1ccc(S(=O)(=O)/C=C/C#N)cc1`, the residual activity was found to be 101%.

Regarding `Cc1ccc(NC2=CC(=O)c3sc(C)nc3C2=O)cc1`, the residual activity was 86.6%.

Another assay has as its target YES1 (human) (UniProt P07947). Described as above. Conditions: compound 0.5 µM; ATP 10 µM.
Turning to `CC(=O)c1ccc(N2CCOCC2)cc1O`, the residual activity was found to be 100%.

Regarding `Cc1ccc(S(=O)(=O)/C=C/C#N)cc1`, the residual activity stood at 94.2%.

Consider `Cc1ccc(NC2=CC(=O)c3sc(C)nc3C2=O)cc1`, for which the residual activity is 86.7%.

The target in a further assay is NEK9 (human) (UniProt Q8TD19). The assay is described as above. To be noted: compound 0.5 µM; ATP 10 µM.
NEK9 (human), sequence (Q8TD19 whole entry, looked up): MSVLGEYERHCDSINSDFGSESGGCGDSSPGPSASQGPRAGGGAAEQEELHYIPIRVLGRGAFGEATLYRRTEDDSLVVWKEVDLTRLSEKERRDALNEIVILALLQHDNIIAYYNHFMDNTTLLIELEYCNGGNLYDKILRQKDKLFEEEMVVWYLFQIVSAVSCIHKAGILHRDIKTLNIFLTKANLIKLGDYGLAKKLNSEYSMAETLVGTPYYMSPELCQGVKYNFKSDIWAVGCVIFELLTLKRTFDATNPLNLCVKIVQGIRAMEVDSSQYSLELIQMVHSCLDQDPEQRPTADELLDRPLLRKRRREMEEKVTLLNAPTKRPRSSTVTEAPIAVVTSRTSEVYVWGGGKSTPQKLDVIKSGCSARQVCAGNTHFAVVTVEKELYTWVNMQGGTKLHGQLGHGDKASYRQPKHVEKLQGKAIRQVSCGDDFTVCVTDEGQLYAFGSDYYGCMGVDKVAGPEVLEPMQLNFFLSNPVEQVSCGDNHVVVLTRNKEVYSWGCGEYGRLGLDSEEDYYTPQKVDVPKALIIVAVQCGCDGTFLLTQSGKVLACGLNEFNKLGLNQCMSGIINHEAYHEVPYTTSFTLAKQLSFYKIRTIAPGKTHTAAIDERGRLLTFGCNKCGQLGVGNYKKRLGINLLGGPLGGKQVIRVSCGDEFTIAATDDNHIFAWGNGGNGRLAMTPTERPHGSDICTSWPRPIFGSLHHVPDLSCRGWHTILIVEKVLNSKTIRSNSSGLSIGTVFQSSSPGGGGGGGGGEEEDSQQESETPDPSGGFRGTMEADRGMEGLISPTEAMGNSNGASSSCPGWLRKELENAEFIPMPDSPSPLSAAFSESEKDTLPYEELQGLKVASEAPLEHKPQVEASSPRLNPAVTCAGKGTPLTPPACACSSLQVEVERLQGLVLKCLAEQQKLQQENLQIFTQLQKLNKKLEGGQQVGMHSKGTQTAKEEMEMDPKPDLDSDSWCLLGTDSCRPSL
`CC(=O)c1ccc(N2CCOCC2)cc1O`: the residual activity was 93.9%.

As to `Cc1ccc(S(=O)(=O)/C=C/C#N)cc1`, the residual activity was found to be 95.6%.

In the case of `Cc1ccc(NC2=CC(=O)c3sc(C)nc3C2=O)cc1`, the residual activity is 99.4%.

For another assay, the target named is CAMK1G (human) (UniProt Q96NX5). Described as above. To be noted: compound 0.5 µM; ATP 10 µM.
CAMK1G (human), sequence (Q96NX5 whole entry, looked up): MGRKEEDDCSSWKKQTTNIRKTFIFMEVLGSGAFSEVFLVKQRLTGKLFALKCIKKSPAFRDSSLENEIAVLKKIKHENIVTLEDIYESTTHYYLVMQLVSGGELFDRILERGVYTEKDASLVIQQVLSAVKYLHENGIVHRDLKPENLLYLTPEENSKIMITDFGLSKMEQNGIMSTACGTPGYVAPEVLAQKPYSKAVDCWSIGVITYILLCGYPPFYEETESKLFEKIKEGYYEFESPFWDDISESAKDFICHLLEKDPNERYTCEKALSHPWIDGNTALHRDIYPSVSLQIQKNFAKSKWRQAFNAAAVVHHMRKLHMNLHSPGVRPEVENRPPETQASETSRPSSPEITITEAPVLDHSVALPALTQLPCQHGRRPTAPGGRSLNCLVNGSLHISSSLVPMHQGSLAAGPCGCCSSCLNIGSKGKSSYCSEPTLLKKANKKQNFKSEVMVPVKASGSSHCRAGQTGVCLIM
Regarding `CC(=O)c1ccc(N2CCOCC2)cc1O`, the residual activity was found to be 101%.

Consider `Cc1ccc(S(=O)(=O)/C=C/C#N)cc1`, for which the residual activity turned out to be 99.9%.

On to `Cc1ccc(NC2=CC(=O)c3sc(C)nc3C2=O)cc1`, for which the residual activity stood at 95%.

For the next assay, the target named is RPS6KA4 KD2 (human) (UniProt O75676). Described as above. To be noted: compound 0.5 µM; ATP 10 µM.
As for `CC(=O)c1ccc(N2CCOCC2)cc1O`, the residual activity worked out at 103%.

Consider `Cc1ccc(S(=O)(=O)/C=C/C#N)cc1`, for which the residual activity worked out at 82.8%.

In the case of `Cc1ccc(NC2=CC(=O)c3sc(C)nc3C2=O)cc1`, the residual activity amounted to 88.4%.

A further assay concerns the target CAMKK1 (human) (UniProt Q8N5S9). The description is as above. Conditions: compound 0.5 µM; ATP 10 µM.
`CC(=O)c1ccc(N2CCOCC2)cc1O`: the residual activity turned out to be 124%.

With `Cc1ccc(S(=O)(=O)/C=C/C#N)cc1`, the residual activity came out at 114%.

As to `Cc1ccc(NC2=CC(=O)c3sc(C)nc3C2=O)cc1`, the residual activity amounted to 108%.

A further assay addresses MUSK (human) (UniProt O15146). Described as above. Conditions: compound 0.5 µM; ATP 10 µM.
As for `CC(=O)c1ccc(N2CCOCC2)cc1O`, the residual activity amounted to 93.9%.

Turning to `Cc1ccc(S(=O)(=O)/C=C/C#N)cc1`, the residual activity was found to be 107%.

For the molecule `Cc1ccc(NC2=CC(=O)c3sc(C)nc3C2=O)cc1`, the residual activity worked out at 89.1%.

A further assay concerns the target LIMK1 (human) (UniProt P53667). Described as above. Conditions: compound 0.5 µM; ATP 10 µM.
Turning to `CC(=O)c1ccc(N2CCOCC2)cc1O`, the residual activity was determined as 93.6%.

Take `Cc1ccc(S(=O)(=O)/C=C/C#N)cc1`: the residual activity came to 97.1%.

`Cc1ccc(NC2=CC(=O)c3sc(C)nc3C2=O)cc1`: the residual activity amounted to 104%.

Another assay concerns the target STK3 (human) (UniProt Q13188). Described as above. Conditions: compound 0.5 µM; ATP 10 µM.
`CC(=O)c1ccc(N2CCOCC2)cc1O`: the residual activity was found to be 98.9%.
